Consider two compounds from publication PMC5755735, “Discovery of indolylpiperazinylpyrimidines with dual-target profiles at adenosine A2A and dopamine D2 receptors for Parkinson's disease treatment” (PLoS ONE, 2018).

One data set can be described thus: aqueous solubility. Type of data set: physicochemical. The following applies: universal aqueous buffer, 22.5 °C, pH 7.4, aqueous buffer, kinetic from dmso stock. The procedure:
The 10 μL stock solution of the ligand (10 mM in DMSO) was added to the universal aqueous buffer (pH 7.4), and the mixture was sonicated. 300 μL of the turbid mixture was transferred to the 3 wells of MultiScreen HTS- PCF filter plate (Millipore Corp., Ireland), and the plate was covered and incubated with gentle shaking (250 rpm, 3 h) at room temperature (22.5 ± 2.5°C). After the period of incubation (3 h), the filter plate was placed on a vacuum manifold and the contents were filtered into a 96-well UV plate. After filtration, 200 μL of filtrate was transferred from each well to the PP vial. Absorbances of the solutions were quantified by HPLC-UV and read at 250 nm.

The subject of the next data set is parkin-null flies. Put plainly: parkin-null Drosophila model of PD (climbing assay, DA neuron count). The following applies: 50 μM. Type of data set: in vivo. An excerpt:
(§1) Parkin-null (pk-/-) flies were first used to evaluate compound 5. […] (Fig 8B), the cluster used widely in the parkin-null flies. Compound 5 was subsequently examined for its ability to ameliorate LRRK2 G2019S-induced PD phenotypes. […] Taken together, these findings indicate that compound 5 acts as a suppressor of DA neuron dysfunction in two Drosophila genetic PD models—one with parkin-null which represents recessive PD, and one with transgene LRRK2 G2019S-mutant, which represents dominant PD.
(§2) Fly lines for 24B-Gal4 (muscle specific), ddc-Gal4 (dopaminergic neuron-specific), elav-Gal4 (pan-neuronal), UAS-mito-GFP, and UAS-dAMPK-KA were purchased from Bloomington Drosophila Stock Center. The parkin-null mutant flies were kind gifts from Chung J. and Cho K. S. (Korea Advanced Institute of Science and Technology, Daejeon, Korea). […] After a 2-hour recovery period from CO2 exposure, flies were gently tapped to the bottom of the column, and the number of flies that reached the top of column at 1 min was counted. […] DA neurons were quantified according to previously published method. The size of mito-GFP puncta was measured using the ImageJ program and expressed as mean ± SD (n ≥ 10 DA neurons per experimental group). Statistical significance for all the quantitative data obtained were analyzed using one-way ANOVA with Tukey’s test HSD post hoc test (*p < 0.05, **p < 0.01).

The subject of data set [1] is LRRK2 G2019S-expressing flies. Put plainly: LRRK2 G2019S Drosophila model of PD (climbing assay, DA neuron count). It counts as in vivo.
Excerpt: as §1, §2

Data set [2] concerns the target T1, human A2B receptors expressed in CHO cells (Homo sapiens, UniProt P29275).
T1 sequence (P29275 1-332): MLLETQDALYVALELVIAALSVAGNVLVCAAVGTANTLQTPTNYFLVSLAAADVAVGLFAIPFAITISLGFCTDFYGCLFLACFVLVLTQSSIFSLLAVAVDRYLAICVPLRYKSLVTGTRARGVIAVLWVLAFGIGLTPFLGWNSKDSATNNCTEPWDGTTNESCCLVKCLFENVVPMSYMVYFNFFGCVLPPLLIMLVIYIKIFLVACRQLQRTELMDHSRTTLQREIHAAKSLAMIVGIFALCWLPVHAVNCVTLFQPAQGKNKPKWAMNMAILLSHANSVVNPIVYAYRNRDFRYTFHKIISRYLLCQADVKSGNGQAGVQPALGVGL
Kind of data set: inhibition of NECA-stimulated adenylyl cyclase activity at hA2B.
Protocol: For measurement of adenylyl cyclase activity in the hA2B receptors, one-step centrifugation procedure was used; the homogenate was sedimented for 30 min at 54,000 g. The so-obtained crude membrane pellet was re-suspended in 50 mM Tris/HCl, pH 7.4 and used for the adenylyl cyclase assay immediately.
The membranes were incubated with about 150,000 cpm of [α-^32P]adenosine triphosphate ([α-^32P]ATP) and test compounds in different concentrations for 20 min. A non-linear regression analysis was applied to calculate the IC50 of the adenylyl cyclase activity assay. From the IC50 values, Ki values were then calculated using the Cheng and Prusoff equation [46].

Data set [3] addresses human dopamine D2 receptor (Homo sapiens, UniProt P14416). Put plainly: adenylyl cyclase inhibition (cAMP accumulation) assay in CHO cells transfected with D2 receptor. Type of data set: cell-based. The arrangement: expressed in transfected cells; host or cells: CHO cells. Background: Changes in cAMP serve as a functional read-out for many G protein-coupled receptors.
Protocol: CHO cells transfected with D2 receptors were cultured and then serum starved overnight. Cells were treated with various concentrations of ligands (25 μL of 10X solution), stimulated with forskolin (0.5 μM) and 3-isobutyl-1-methylxanthine (IBMX) (0.5 mM), and incubated for 15 minutes. After lysis, cAMP content was determined by ELISA.

Where two headings read alike, the source gives them in different places.

Chain of human dopamine D2 receptor (P14416 whole entry): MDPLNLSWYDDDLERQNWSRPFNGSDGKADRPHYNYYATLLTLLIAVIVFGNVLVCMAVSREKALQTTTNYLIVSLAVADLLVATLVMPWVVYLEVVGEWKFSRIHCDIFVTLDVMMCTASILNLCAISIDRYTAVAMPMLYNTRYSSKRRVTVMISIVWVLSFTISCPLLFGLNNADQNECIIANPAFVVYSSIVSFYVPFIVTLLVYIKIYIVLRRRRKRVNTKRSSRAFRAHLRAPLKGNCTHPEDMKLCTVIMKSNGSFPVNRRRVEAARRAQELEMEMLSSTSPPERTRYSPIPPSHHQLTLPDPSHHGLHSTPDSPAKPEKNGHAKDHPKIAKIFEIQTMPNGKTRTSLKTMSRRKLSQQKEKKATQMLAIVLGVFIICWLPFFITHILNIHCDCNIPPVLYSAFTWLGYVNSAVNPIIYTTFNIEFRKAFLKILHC

Consider `Cc1cc(C)nc(N2CCN(C(=O)c3c[nH]c4ccccc34)CC2)n1` [Compound 5, 3‐[4‐(4,6‐Dimethylpyrimidin‐2‐yl)piperazine‐1‐carbonyl]‐1H‐indole], for which the solubility at 3 h is less than 10 µg/mL in the data set “aqueous solubility” (ambient temperature, pH 7.4, guideline of Kerns et al. [40], read-out: aqueous solubility class); 27 ± 0.32 µM in “aqueous solubility” (pH 7.4, 3 h, room temperature, read-out: Solubility (μM), 3 h); 9.07 ± 0.11 µg/mL in “aqueous solubility” (pH 7.4, 3 h, room temperature, read-out: Solubility (μg/mL), 3 h). Further, the “DA neuronal count (PPL1 cluster)” value with parkin-null flies is “reduction of DA neuron loss in the PPL1 cluster”. For the same compound, the climbing score result is “improvement in climbing scores” with parkin-null flies (compared with untreated mutant flies); “improvement in climbing (in a concentration-dependent manner)” in data set [1] (50 μM and 100 μM). Also, the DA neuronal count entry in data set [1] (LRRK2 G2019S-expressing flies) was “mitigation of DA neuron degeneration”.

In data set [2], `Cc1cc(C)nc(N2CCN(C(=O)Cc3c(C)[nH]c4ccccc34)CC2)n1` [Compound 6, 1‐[4‐(4,6‐Dimethylpyrimidin‐2‐yl)piperazin‐1‐yl]‐2‐(2‐methyl‐1H‐indol‐3‐yl)ethan‐1‐one] registered an inhibition constant Ki greater than 20 µM. Further, the “functional activity at D2 receptor (cAMP accumulation induced by forskolin/IBMX)” value in data set [3] (1 μM, 10 μM and 100 μM) is given as “acted as a D2 receptor agonist”. The “inhibition of cAMP accumulation (optimal inhibition)” value in data set [3] (100 μM, p = 0.0232) was “comparable potency to 100 nM of quinpirole”.

One may read the Ki as a dissociation constant, usually derived from enzyme kinetics or from competition with a known ligand. Lower therefore signals a stronger hold on the target.
